Assays:
[1] = tested on: kainic acid (kainate) receptor; experiment: selectivity study at other ionotropic excitatory amino acid receptors: kainate; type: binding
Procedure: (§1) The potent and selective action of the compound of the invention at the strychnine-insensitive glycine binding site present on the NMDA receptor complex may be readily determined using conventional test procedures. Thus the ability to bind at the strychnine insensitive glycine binding site was determined using the procedure of Kishimoto H et al., J Neurochem 1981, 37, 1015-1024. The selectivity of the action of compounds of the invention for the strychnine insensitive glycine site was confirmed in studies at other ionotropic known excitatory amino acid receptors.

NMDA binding site = experiment: selectivity study at other ionotropic excitatory amino acid receptors: NMDA binding site
Procedure: as §1

mice = experiment: tolerability on administration to mice; type: in vivo; conditions: pharmacological active doses
[2] = tested on: a-amino-3-hydroxy-5-methyl-4-isoxazole-proprionic acid (AMPA) receptor; experiment: selectivity study at other ionotropic excitatory amino acid receptors: AMPA; type: binding
Procedure: as §1

[3] = molecular target: T1, strychnine insensitive glycine binding site associated with the NMDA receptor complex (Rattus norvegicus, UniProt P35439); experiment: binding at the strychnine insensitive glycine binding site (procedure of Kishimoto H et al.)
T1 construct: from tissue; host or cells: rat CNS membranes (inferred from the cited procedure)
Procedure: as §1

CNC[C@H](O)[C@@H](O)[C@H](O)[C@H](O)CO.O=C(O)C1CC(=C2CCN(c3ccccc3)C2=O)c2ccc(Cl)cc2N1 (single isomer, unassigned; enantiomer a) [compound of the invention, meglumine salt of enantiomer A of 7-chloro-4-(2-oxo-1-phenyl-3-pyrrolidinylidene)-1,2,3,4-tetrahydro-2-quinolinecarboxylic acid]
affinity for the kainic acid (kainate) receptor [1]: little or no affinity | affinity at the NMDA binding site (NMDA binding site): little or no affinity | untoward effects (mice): No untoward effects | affinity for the AMPA receptor [2]: little or no affinity | antagonism at the strychnine insensitive glycine binding site [3]: potent antagonist

Source: patent US6713491B2, “Heterocyclic derivatives” (priority 1999, dated 2004)
